Measurements published in ChEMBL document CHEMBL3822440, “Semi-synthesis and antiproliferative evaluation of PEGylated pentacyclic triterpenes” (Eur J Med Chem, 2016).

Experiments:
HT-29 [1] = experiment: Induction of apoptosis in human HT-29 cells assessed as late apoptotic cells at cytotoxic IC50 after 72 hrs by Annexin V-FITC/propidium iodide staining based flow cytometry (reference value: 0.65 +/- 0.35%); type: functional
HT-29 [2] = experiment: Cell cycle arrest in human HT-29 cells assessed as accumulation at G2/M phase at cytotoxic IC50 after 72 hrs by propidium iodide staining based flow cytometry (reference value: 6.23 +/- 1.7%); type: functional
HT-29 [3] = experiment: Induction of apoptosis in human HT-29 cells assessed as live cells at cytotoxic IC50 after 72 hrs by Annexin V-FITC/propidium iodide staining based flow cytometry (reference value: 96.65 +/- 0.78%); type: functional
[4] = Induction of apoptosis in mouse B16F10 cells assessed as necrotic cells at cytotoxic IC50 after 72 hrs by Annexin V-FITC/propidium iodide staining based flow cytometry (reference value: 0.75 +/- 0.07%); type: functional, B16-F10
HT-29 [5] = experiment: Potency index, ratio of oleanolic acid IC50 to compound IC50 for human HT-29 cells; type: functional
HepG2 [6] = experiment: Induction of apoptosis in human HepG2 cells assessed as necrotic cells at cytotoxic IC50 after 72 hrs by Annexin V-FITC/propidium iodide staining based flow cytometry (reference value: 0.1 +/- 0.01%); type: functional
HepG2 [7] = experiment: Potency index, ratio of oleanolic acid IC50 to compound IC50 for human HepG2 cells; type: functional
HT-29 [8] = experiment: Induction of apoptosis in human HT-29 cells assessed as early apoptotic cells at cytotoxic IC50 after 72 hrs by Annexin V-FITC/propidium iodide staining based flow cytometry (reference value: 1.65 +/- 0.07%); type: functional
[9] = Cell cycle arrest in mouse B16F10 cells assessed as accumulation at G0/G1 phase at cytotoxic IC50 after 72 hrs by propidium iodide staining based flow cytometry (reference value: 50.69 +/- 0.61%); type: functional, B16-F10
[10] = Induction of apoptosis in mouse B16F10 cells assessed as live cells at cytotoxic IC50 after 72 hrs by Annexin V-FITC/propidium iodide staining based flow cytometry (reference value: 97.55 +/- 0.5%); type: functional, B16-F10
[11] = Induction of apoptosis in mouse B16F10 cells assessed as late apoptotic cells at cytotoxic IC50 after 72 hrs by Annexin V-FITC/propidium iodide staining based flow cytometry (reference value: 0.75 +/- 0.21%); type: functional, B16-F10
HepG2 [12] = experiment: Disruption of mitochondrial membrane potential in human HepG2 cells assessed as rhodamine123 positive cells at cytotoxic IC50 after 72 hrs by propidium iodide staining based fluorescence spectroscopic analysis (reference value: 88.3 +/- 8.87%); type: functional
B16-F10 [13] = experiment: Potency index, ratio of oleanolic acid IC50 to compound IC50 for mouse B16F10 cells; type: functional
HepG2 [14] = experiment: Cell cycle arrest in human HepG2 cells assessed as accumulation at G2/M phase at cytotoxic IC50 after 72 hrs by propidium iodide staining based flow cytometry (reference value: 8.47 +/- 2.55%); type: functional
[15] = Cell cycle arrest in mouse B16F10 cells assessed as accumulation at S phase at cytotoxic IC50 after 72 hrs by propidium iodide staining based flow cytometry (reference value: 48.31 +/- 0.74%); type: functional, B16-F10
HepG2 [16] = experiment: Induction of apoptosis in human HepG2 cells assessed as early apoptotic cells at cytotoxic IC50 after 72 hrs by Annexin V-FITC/propidium iodide staining based flow cytometry (reference value: 0.3 +/- 0.01%); type: functional
HepG2 [17] = experiment: Induction of apoptosis in human HepG2 cells assessed as late apoptotic cells at cytotoxic IC50 after 72 hrs by Annexin V-FITC/propidium iodide staining based flow cytometry relative to control; type: functional
HepG2 [18] = experiment: Disruption of mitochondrial membrane potential in human HepG2 cells assessed as rhodamine123 negative cells at cytotoxic IC50 after 72 hrs by propidium iodide staining based fluorescence spectroscopic analysis (reference value: 11.7 +/- 6.8%); type: functional
HT-29 [19] = experiment: Cell cycle arrest in human HT-29 cells assessed as accumulation at S phase at cytotoxic IC50 after 72 hrs by propidium iodide staining based flow cytometry (reference value: 48.31 +/- 1.49%); type: functional
[20] = Induction of apoptosis in mouse B16F10 cells assessed as early apoptotic cells at cytotoxic IC50 after 72 hrs by Annexin V-FITC/propidium iodide staining based flow cytometry (reference value: 0.75 +/- 0.07%); type: functional, B16-F10
HepG2 [21] = experiment: Cell cycle arrest in human HepG2 cells assessed as accumulation at S phase at cytotoxic IC50 after 72 hrs by propidium iodide staining based flow cytometry (reference value: 54.71 +/- 2.37%); type: functional
[22] = Cell cycle arrest in mouse B16F10 cells assessed as accumulation at G2/M phase at cytotoxic IC50 after 72 hrs by propidium iodide staining based flow cytometry (reference value: 1.01 +/- 0.13%); type: functional, B16-F10
HT-29 [23] = experiment: Cytotoxicity against human HT-29 cells assessed as growth inhibition after 72 hrs by MTT assay; type: functional, cell-based; conditions: HT-29, 72 h
HT-29 [24] = experiment: Disruption of mitochondrial membrane potential in human HT-29 cells assessed as rhodamine123 negative cells at cytotoxic IC50 after 72 hrs by propidium iodide staining based fluorescence spectroscopic analysis (reference value: 5.8 +/- 0.42%); type: functional
HT-29 [25] = experiment: Disruption of mitochondrial membrane potential in human HT-29 cells assessed as rhodamine123 positive cells at cytotoxic IC50 after 72 hrs by propidium iodide staining based fluorescence spectroscopic analysis (reference value: 94.25 +/- 0.35%); type: functional
HepG2 [26] = experiment: Induction of apoptosis in human HepG2 cells assessed as live cells at cytotoxic IC50 after 72 hrs by Annexin V-FITC/propidium iodide staining based flow cytometry (reference value: 99.55 +/- 0.07%); type: functional
[27] = Disruption of mitochondrial membrane potential in mouse B16F10 cells assessed as rhodamine123 positive cells at cytotoxic IC50 after 72 hrs by propidium iodide staining based fluorescence spectroscopic analysis (reference value: 95.6 +/- 0.57%); type: functional, B16-F10
HepG2 [28] = experiment: Cell cycle arrest in human HepG2 cells assessed as accumulation at G0/G1 phase at cytotoxic IC50 after 72 hrs by propidium iodide staining based flow cytometry (reference value: 39.41 +/- 1.56%); type: functional
HT-29 [29] = experiment: Induction of apoptosis in human HT-29 cells assessed as necrotic cells at cytotoxic IC50 after 72 hrs by Annexin V-FITC/propidium iodide staining based flow cytometry (reference value: 1.05 +/- 0.35%); type: functional
HepG2 [30] = experiment: Cytotoxicity against human HepG2 cells assessed as growth inhibition after 72 hrs by MTT assay; type: functional, cell-based; conditions: HepG2, 72 h
[31] = Cytotoxicity against mouse B16F10 cells assessed as growth inhibition after 72 hrs by MTT assay; type: functional, cell-based; conditions: B16-F10, 72 h
[32] = Disruption of mitochondrial membrane potential in mouse B16F10 cells assessed as rhodamine123 negative cells at cytotoxic IC50 after 72 hrs by propidium iodide staining based fluorescence spectroscopic analysis (reference value: 4.45 +/- 0.64%); type: functional, B16-F10
HT-29 [33] = experiment: Cell cycle arrest in human HT-29 cells assessed as accumulation at G0/G1 phase at cytotoxic IC50 after 72 hrs by propidium iodide staining based flow cytometry (reference value: 55.18 +/- 0.22%); type: functional
HepG2 [34] = experiment: Potency index, ratio of maslinic acid IC50 to compound IC50 for human HepG2 cells; type: functional
B16-F10 [35] = experiment: Potency index, ratio of maslinic acid IC50 to compound IC50 for mouse B16F10 cells; type: functional
HT-29 [36] = experiment: Potency index, ratio of maslinic acid IC50 to compound IC50 for human HT-29 cells; type: functional

## COCCOCCOCC(=O)O[C@H]1CC[C@]2(C)[C@H]3CC=C4[C@@H]5CC(C)(C)CC[C@]5(C(=O)O)CC[C@@]4(C)[C@]3(C)CC[C@H]2C1(C)C
HT-29 [1]
  Activity: 13.45%
HT-29 [2]
  Activity: 0%
HT-29 [3]
  Activity: 51.85%
[4]
  Activity: 0.35%
HT-29 [5]
  Ratio IC50: 31.9
HepG2 [6]
  Activity: 0.2%
HepG2 [7]
  Ratio IC50: 12.1
HT-29 [8]
  Activity: 34.7%
[9]
  Activity: 74.28%
[10]
  Activity: 52.75%
[11]
  Activity: 39.6%
HepG2 [12]
  Activity: 13.95%
B16-F10 [13]
  Ratio IC50: 6.2
HepG2 [14]
  Activity: 14.18%
[15]
  Activity: 25.44%
HepG2 [16]
  Activity: 38.65%
HepG2 [17]
  Activity: 17.7%
HepG2 [18]
  Activity: 86.05%
HT-29 [19]
  Activity: 49.98%
[20]
  Activity: 6.8%
HepG2 [21]
  Activity: 45.44%
[22]
  Activity: 0.28%
HT-29 [23]
  IC50: 13.5 µM
HT-29 [24]
  Activity: 11.35%
HT-29 [25]
  Activity: 88.65%
HepG2 [26]
  Activity: 43.5%
[27]
  Activity: 79.45%
HepG2 [28]
  Activity: 38.88%
HT-29 [29]
  Activity: 0%
HepG2 [30]
  IC50: 17.5 µM
[31]
  IC50: 17.2 µM
[32]
  Activity: 20.65%
HT-29 [33]
  Activity: 63.47%

## COCCOCCOCC(=O)O[C@@H]1C[C@]2(C)[C@H]3CC=C4[C@@H]5CC(C)(C)CC[C@]5(C(=O)OCc5ccccc5)CC[C@@]4(C)[C@]3(C)CC[C@H]2C(C)(C)[C@H]1OC(=O)COCCOCCOC
HT-29 [1]
  Activity: 6.7%
HT-29 [2]
  Activity: 1.51%
HT-29 [3]
  Activity: 48.95%
[4]
  Activity: 0.8%
HepG2 [6]
  Activity: 0%
HT-29 [8]
  Activity: 43.95%
[9]
  Activity: 83.03%
HepG2 [34]
  Ratio IC50: 7.8
[10]
  Activity: 2.7%
[11]
  Activity: 67.25%
HepG2 [12]
  Activity: 45.7%
HepG2 [14]
  Activity: 15.04%
[15]
  Activity: 13.13%
B16-F10 [35]
  Ratio IC50: 1.7
HepG2 [16]
  Activity: 18.65%
HepG2 [17]
  Activity: 44.35%
HepG2 [18]
  Activity: 54.25%
HT-29 [19]
  Activity: 6.63%
[20]
  Activity: 29.6%
HepG2 [21]
  Activity: 19.76%
[22]
  Activity: 3.85%
HT-29 [23]
  IC50: 31.6 µM
HT-29 [24]
  Activity: 96.9%
HT-29 [25]
  Activity: 3.15%
HepG2 [26]
  Activity: 37%
[27]
  Activity: 81.35%
HepG2 [28]
  Activity: 65.2%
HT-29 [29]
  Activity: 0.15%
HepG2 [30]
  IC50: 12.8 µM
[31]
  IC50: 21.1 µM
HT-29 [36]
  Ratio IC50: 1
[32]
  Activity: 18.6%
HT-29 [33]
  Activity: 91.87%
